We go through 26 molecules from patent US11299512B2 (priority 2016, dated 2022).

The EC50 is the concentration giving half of the maximal effect.

For this assay, the system named is THP1 luciferase reporter cells. The assay is described as follows: cells. The format is cell-based.
The mark [1] stands for this setting: 16 hours, read-out: THP1-ISG-Luc with PFO, EC50.
Setting [2] is: 16 hours, read-out: THP-ISG-Luc without PFO, EC50.
[3] abbreviates: Homo sapiens, THP-1, 16 h, read-out: THP1-ISG-Luc with PFO, EC50.
Setting [4] is: Homo sapiens, THP-1, 16 h, read-out: THP-ISG-Luc without PFO, EC50.

Read-outs that look alike come from different tables or passages of the source.

As to `Nc1nc2c(ncn2[C@@H]2O[C@@H]3COP(=O)(S)OC4C(O)[C@H](n5ncc6c(N)ncnc65)O[C@@H]4COP(=O)(S)OC2C3O)c(=O)[nH]1` (single isomer, unassigned) [EA4], the EC50 runs as follows: under setting [1], 100 to 1000 nM; under setting [2], under 30000 nM.

As to `Nc1nc2c(ncn2[C@@H]2O[C@@H]3COP(=O)(S)OC4C(O)[C@H](n5ncc6c(N)ncnc65)O[C@@H]4COP(=O)(S)OC2C3O)c(=O)[nH]1` (single isomer, unassigned) [EA5], the EC50 under setting [1] was over 1000 nM and the EC50 under setting [2] is over 100000 nM.

With `Nc1nc2c(ccn2[C@@H]2O[C@@H]3COP(=O)(S)OC4C(O)[C@H](n5cnc6c(N)ncnc65)O[C@@H]4COP(=O)(S)OC2C3O)c(=O)[nH]1` (single isomer, unassigned) [EA6], the EC50 by setting is: under setting [1], over 1000 nM; under setting [2], over 100000 nM.

For `Nc1nc2c(ccn2[C@@H]2O[C@@H]3COP(=O)(S)O[C@@H]4C(O)[C@H](n5cnc6c(N)ncnc65)O[C@@H]4COP(=O)(S)O[C@H]2C3O)c(=O)[nH]1` (single isomer, unassigned) [EA7], the EC50 was 100 to 1000 nM under setting [3] and under 30000 nM under setting [4].

`Nc1nc2c(ccn2[C@@H]2O[C@@H]3COP(=O)(S)OC4C(O)[C@H](n5cnc6c(N)ncnc65)O[C@@H]4COP(=O)(S)OC2C3O)c(=O)[nH]1` (single isomer, unassigned) [EA8]: the EC50 by setting is: under setting [1], 100 to 1000 nM; under setting [2], under 30000 nM.

Consider `BP1(=O)OC[C@H]2O[C@@H](n3cnc4c(N)ncnc43)C(O)C2OP(=O)(O)OC[C@H]2O[C@@H](n3cnc4c(=O)[nH]c(N)nc43)C(O1)C2O` (single isomer, unassigned) [EA9], for which the EC50 was under 100 nM under setting [3] and under 30000 nM under setting [4].

On to `Nc1nc2c(ccn2[C@@H]2O[C@@H]3COP(=O)(O)OC4C(O)[C@H](n5ccc6c(N)ncnc65)O[C@@H]4COP(=O)(S)OC2C3O)c(=O)[nH]1` (single isomer, unassigned) [EB1], for which the EC50 by setting is: under setting [1], over 1000 nM; under setting [4], 30000 to 100000 nM.

In the case of `Nc1nc2c(ccn2[C@@H]2O[C@@H]3COP(=O)(O)OC4C(O)[C@H](n5ccc6c(N)ncnc65)O[C@@H]4COP(=O)(S)OC2C3O)c(=O)[nH]1` (single isomer, unassigned) [EB2], the EC50 is under 100 nM under setting [1] and under 30000 nM under setting [2].

For the molecule `Nc1nc2c(ccn2[C@@H]2O[C@@H]3COP(=O)(O)OC4C(O)[C@H](n5cnc6c(N)ncnc65)O[C@@H]4COP(=O)(S)OC2C3O)c(=O)[nH]1` (single isomer, unassigned) [EB4], the EC50 under setting [3] was over 1000 nM and the EC50 under setting [4] was 30000 to 100000 nM.

For `Nc1nc2c(cnn2[C@@H]2O[C@@H]3COP(=O)(S)OC4C(O)[C@H](n5cnc6c(N)ncnc65)O[C@@H]4COP(=O)(S)OC2C3O)c(=O)[nH]1` (single isomer, unassigned) [EB7], the concentration for a half-maximal effect (EC50) is over 1000 nM under setting [3] and over 100000 nM under setting [4].

`Nc1nc2c(ncn2[C@@H]2O[C@@H]3COP(=O)(O)OC4C(O)[C@H](n5ccc6c(N)ncnc65)O[C@@H]4COP(=O)(S)OC2C3OCC(F)(F)F)c(=O)[nH]1` (single isomer, unassigned) [EC2]: the EC50 runs as follows: under setting [3], 100 to 1000 nM; under setting [4], 30000 to 100000 nM.

As for `Nc1nc2c(ccn2[C@@H]2O[C@@H]3COP(=O)(S)OC4C(O)[C@@H](COP(=O)(O)OC3C2O)O[C@H]4n2ccc3c(=O)[nH]c(N)nc32)c(=O)[nH]1` (single isomer, unassigned) [EC4], the EC50 is over 1000 nM under setting [1] and over 100000 nM under setting [2].

`Nc1nc2c(ccn2[C@@H]2O[C@@H]3COP(=O)(S)OC4C(O)[C@@H](COP(=O)(O)OC3C2O)O[C@H]4n2ccc3c(=O)[nH]c(N)nc32)c(=O)[nH]1` (single isomer, unassigned) [EC5]: the EC50 is 100 to 1000 nM under setting [1] and 30000 to 100000 nM under setting [2].

`Nc1nc2c(ccn2[C@@H]2O[C@@H]3COP(=O)(S)OC4C(O)[C@@H](COP(=O)(O)OC3C2O)O[C@H]4n2ccc3c(N)ncnc32)c(=O)[nH]1` (single isomer, unassigned) [EC8]: the EC50 is, setting by setting: under setting [3], over 1000 nM; under setting [4], over 100000 nM.

Regarding `Nc1nc2c(ccn2[C@@H]2O[C@@H]3COP(=O)(S)OC4C(O)[C@@H](COP(=O)(O)OC3C2O)O[C@H]4n2ccc3c(N)ncnc32)c(=O)[nH]1` (single isomer, unassigned) [EC9], the EC50 runs as follows: under setting [1], over 1000 nM; under setting [2], over 100000 nM.

For the molecule `Nc1nc2c(ccn2[C@@H]2O[C@@H]3COP(=O)(O)OC4C(O)[C@@H](COP(=O)(S)OC2C3O)O[C@H]4n2cnc3c(N)ncnc32)c(=O)[nH]1` (single isomer, unassigned) [EC14], the EC50 by setting is: under setting [1], over 1000 nM; under setting [2], over 100000 nM.

Turning to `Nc1nc2c(ccn2[C@@H]2O[C@@H]3COP(=O)(O)OC4C(O)[C@@H](COP(=O)(S)OC2C3O)O[C@H]4n2cnc3c(N)ncnc32)c(=O)[nH]1` (single isomer, unassigned) [EC15], the EC50 is, setting by setting: under setting [1], 100 to 1000 nM; under setting [2], under 30000 nM.

Regarding `Nc1nc2c(ncn2[C@@H]2O[C@@H]3COP(=O)(O)OC4C[C@H](n5ccc6ccccc65)O[C@@H]4COP(=O)(S)OC2C3O)c(=O)[nH]1` (single isomer, unassigned) [EC17], the EC50 by setting is: under setting [3], over 1000 nM; under setting [4], over 100000 nM.

Take `Nc1nc2c(ncn2[C@@H]2O[C@@H]3COP(=O)(O)OC4C[C@H](n5ccc6ccccc65)O[C@@H]4COP(=O)(S)OC2C3O)c(=O)[nH]1` (single isomer, unassigned) [EC18]: the EC50 under setting [1] was over 1000 nM and the EC50 under setting [2] is over 100000 nM.

Take `Nc1nc2c(ncn2[C@@H]2O[C@@H]3COP(=O)(O)OC4C[C@H](c5ccc6ccc7cccc8ccc5c6c78)O[C@@H]4COP(=O)(S)OC2C3O)c(=O)[nH]1` (single isomer, unassigned) [EC20]: the EC50 reads like this: under setting [3], over 1000 nM; under setting [4], over 100000 nM.

Turning to `Nc1nc2c(ncn2[C@@H]2O[C@@H]3COP(=O)(O)OC4C[C@H](c5ccc6ccc7cccc8ccc5c6c78)O[C@@H]4COP(=O)(S)OC2C3O)c(=O)[nH]1` (single isomer, unassigned) [EC21], the EC50 is, setting by setting: under setting [1], over 1000 nM; under setting [2], over 100000 nM.

As to `Nc1nc2c(ncn2[C@@H]2O[C@@H]3COP(=O)(S)OC4C(O)[C@H](n5cnc6c(N)ncnc65)O[C@@H]4COP(=O)(O)OC2C3O)c(=O)[nH]1` (single isomer, unassigned) [Example E6], the EC50 by setting is: under setting [3], under 100 nM; under setting [4], under 30000 nM.

For `Nc1nc2c(ncn2[C@@H]2O[C@@H]3COP(=O)(S)OC4C(O)[C@H](n5cnc6c(N)ncnc65)O[C@@H]4COP(=O)(O)OC2C3O)c(=O)[nH]1` (single isomer, unassigned) [Example E7], the concentration giving a half-maximal response (EC50) under setting [1] was under 100 nM and the EC50 under setting [2] is under 30000 nM.

On to `Nc1nc2c(ncn2[C@@H]2O[C@@H]3COP(=O)(O)OC4C(O)[C@H](n5cnc6c(N)ncnc65)O[C@@H]4COP(=O)(S)OC2C3O)c(=O)[nH]1` (single isomer, unassigned) [Example E8], for which the EC50 under setting [2] was over 100000 nM and the concentration giving a half-maximal response (EC50) under setting [3] was 100 to 1000 nM.

`Nc1nc2c(ncn2[C@@H]2O[C@@H]3COP(=O)(O)OC4C(O)[C@H](n5cnc6c(N)ncnc65)O[C@@H]4COP(=O)(S)OC2C3O)c(=O)[nH]1` (single isomer, unassigned) [Example E9]: the EC50 was under 100 nM under setting [1] and under 30000 nM under setting [2].

Regarding `Nc1nc2c(ncn2[C@@H]2O[C@@H]3COP(=O)(S)OC4C(O)[C@H](n5cnc6c(N)ncnc65)O[C@@H]4COP(=O)(S)OC2C3O)c(=O)[nH]1` (single isomer, unassigned) [Example E12], the EC50 was under 30000 nM under setting [2] and under 100 nM under setting [3].
